Assay results reported in US9802898B2, “Phenyl and tertbutylacetic acid substituted pyridinones having anti-HIV effects” (priority 2014, dated 2017).

System: HIV
Test: MT4 assay, antiviral HIV activity
Assay type: cell-based
Settings: Human immunodeficiency virus 1, 96 h, read-out: HIV MT4 Assay IC50
Procedure: Antiviral HIV activity and cytotoxicity values for compounds of the invention from Table 1 were measured in parallel in the HTLV-1 transformed cell line MT-4 based on the method previously described (Hazen et al., 2007, In vitro antiviral activity of the novel, tyrosyl-based human immunodeficiency virus (HIV) type 1 protease inhibitor brecanavir (GW640385) in combination with other antiretrovirals and against a panel of protease inhibitor-resistant HIV (Hazen et al., “In vitro antiviral activity of the novel, tyrosyl-based human immunodeficiency virus (HIV) type 1 protease inhibitor brecanavir (GW640385) in combination with other antiretrovirals and against a panel of protease inhibitor-resistant HIV”, Antimicrob. Agents Chemother. 2007, 51: 3147-3154; and Pauwels et al., “Sensitive and rapid assay on MT-4 cells for the detection of antiviral compounds against the AIDS virus”, J. of Virological Methods 1987, 16: 171-185).
Luciferase activity was measured 96 hours later by adding a cell titer glo (Promega, Madison, Wis.). Percent inhibition of cell protection data was plotted relative to no compound control. Under the same condition, cytotoxicity of the compounds was determined using cell titer Glo™ (Promega, Madison, Wis.). IC50s were determined from a 10 point dose response curve using 3-4-fold serial dilution for each compound, which spans a concentration range >1000 fold.
These values are plotted against the molar compound concentrations using the standard four parameter logistic equation: y=((Vmax*x^n)/(K^n+x^n))+Y2
Y2=minimum y n=slope factor
Vmax=maximum y x=compound concentration [M]

| Structure (SMILES) | IC50 [nM] |
| --- | --- |
| Cc1ccc(-c2c(C)c(C(=O)N[C@H]3CC[C@H](C)CC3)cc(=O)n2C(CC(C)(C)C)C(=O)O)cc1 (stereo partly drawn) [Example 1, 4,4-Dimethyl-2-(5-methyl-4-(((1r,4r)-4-methylcyclohexyl)carbamoyl)-2-oxo-6-(p-tolyl)pyridin-1(2H)-yl)pentanoic acid] | 350 |
| Cc1ccc(-c2c(C)c(-c3ccc(C)c(C)c3)cc(=O)n2C(CC(C)(C)C)C(=O)O)cc1 (stereo not drawn) [Example 2, 2-(4-(3,4-Dimethylphenyl)-5-methyl-2-oxo-6-(p-tolyl)pyridin-1(2H)-yl)-4,4-dimethylpentanoic acid] | 1090 |
| Cc1ccc(-c2c(C)c(-c3ccc(C)c(C)c3)c(NS(C)(=O)=O)c(=O)n2C(CC(C)(C)C)C(=O)O)cc1 (stereo not drawn) [Example 3, 2-(4-(3,4-dimethylphenyl)-5-methyl-3-(methylsulfonamido)-2-oxo-6-(p-tolyl)pyridin-1(2H)-yl)-4,4-dimethylpentanoic acid] | 310 |
| Cc1ccc(-c2c(C)cc(NS(C)(=O)=O)c(=O)n2C(CC(C)(C)C)C(=O)O)cc1 (stereo not drawn) [Example 4, 4,4-Dimethyl-2-(5-methyl-3-(methylsulfonamido)-2-oxo-6-(p-tolyl)pyridin-1(2H)-yl)pentanoic acid] | 33000 |
| Cc1ccc(-c2c(C)c(-c3nnc(N[C@H]4CC[C@H](C)CC4)o3)cc(=O)n2C(CC(C)(C)C)C(=O)O)cc1 (stereo partly drawn) [Example 6, 4,4-Dimethyl-2-(5-methyl-4-(5-(((1 r,4r)-4-methylcyclohexyl)amino)-1,3,4-oxadiazol-2-yl)-2-oxo-6-(p-tolyl)pyridin-1(2H)-yl)pentanoic acid] | 5600 |
| Cc1ccc(-c2c(C)c(C(=O)NC3CCCCC3)cc(=O)n2C(CC(C)(C)C)C(=O)O)cc1 (stereo not drawn) [Example 7, 2-(4-(cyclohexylcarbamoyl)-5-methyl-2-oxo-6-p-tolylpyridin-1(2H)-yl)-4,4-dimethylpentanoic acid] | 430 |
| Cc1ccc(-c2c(C)c(C(=O)NCC3CCCCC3)cc(=O)n2C(CC(C)(C)C)C(=O)O)cc1 (stereo not drawn) [Example 8, 2-(4-(cyclohexylmethylcarbamoyl)-5-methyl-2-oxo-6-p-tolylpyridin-1(2H)-yl)-4,4-dimethylpentanoic acid] | 840 |
| Cc1ccc(-c2c(C)c(C(=O)NCc3ccccc3)cc(=O)n2C(CC(C)(C)C)C(=O)O)cc1 (stereo not drawn) [Example 9, 2-(4-(benzylcarbamoyl)-5-methyl-2-oxo-6-p-tolylpyridin-1(2H)-yl)-4,4-dimethylpentanoic acid] | 3290 |
| Cc1ccc(-c2c(C)cc(NS(=O)(=O)CC3CCCCC3)c(=O)n2C(CC(C)(C)C)C(=O)O)cc1 (stereo not drawn) [Example 10, 2-(3-(cyclohexylmethylsulfonamido)-5-methyl-2-oxo-6-(p-tolyl)pyridin-1(2H)-yl)-4,4-dimethylpentanoic acid] | 1560 |
